From patent US20060057230A1, “Tea polyphenols bioavailability enhancement method” (priority 2004, published 2006)
“And” between values parts separate entries of the source, which are not always exact repeats. Identical values can stand only once. Like-named read-outs stand apart in the source and are kept apart here. One block for each molecule: values may come before it.

Experiments:
[1] = Plasma total (free and conjugated) catechin Cmax after β-glucuronidase and sulfatase treatment; conditions: for form mostly present in plasma: comparing total and free catechin Cmax
Experimental: (§1) During the initial clinic visit, study participants completed a medical history form and underwent a brief physical examination. A fasting blood was collected and subjected to a complete blood count with differential leukocyte count and a comprehensive blood chemistry analysis. Eligible subjects were randomly assigned to one of the Polyphenon E doses (400, 800, and 1200 mg, based on EGCG content) and were required to refrain from the ingestion of tea, apples, chocolate, and their products two weeks prior to the first pharmacokinetic study day and until the end of the second pharmacokinetic study day. The night prior to the first pharmacokinetic study day, subjects fasted after midnight except for water. At approximately either 6 am or 9 am on the morning of the first pharmacokinetic study day, each subject was randomly assigned to receive Polyphenon E at the assigned dose level with or without breakfast. Breakfast consisted of one or two 4-oz muffins.
(§2) Study participants had the option of selecting from three varieties of Otis Spunkmeyer® brand muffins: cheese streusel, wild blueberry, and banana nut flavors. The muffins contain 420 to 480 calories each, with 48-60 grams of carbohydrates, 20-24 grams of fat, and 6 grams of protein. Blood samples were collected prior to and at 0.5, 1, 2, 4, 6, 8, 10, and 24 hours after Polyphenon E administration. Urine samples were collected prior to and up to 24 hours (divided into two intervals: 0-8 and 8-24 hours post-dose) after dosing. Following a one-week wash-out period, study subjects fasted overnight and were crossed-over to receive the same dose of Polyphenon E under the other fasting/fed condition.
(§3) Blood samples were collected into Vacutainer tubes containing sodium heparin. Within 30 minutes of collection, tubes were centrifuged for 10 minutes at 2000 rpm. After centrifugation, plasma was mixed with Vc-EDTA solution (0.4 M NaH2PO4 buffer containing 20% ascorbic acid and 0.1% EDTA, pH 3.6) in the volume ratio of 1:0.02 and stored at −80° C. until sample analysis. Urine specimen container was preadded with 1.38 g NaH2PO4, 1 g ascorbic acid, and 5 mg EDTA to prevent degradation of tea catechins. Urine specimen was kept cold by storing the specimen container in a cooler chest with freezer packs during each collection period. The total volume of each urine sample was measured. An aliquot of urine sample was mixed with the Vc-EDTA solution and stored at −80° C. until sample analysis.
(§4) In brief, for determination of free green tea catechins, plasma or urine samples were extracted with ethyl acetate. The ethyl acetate layer was mixed with a small aliquot of 0.1% ascorbic acid before drying by vacuum centrifugation. The dried residue was re-dissolved in 15% acetonitrile and injected onto HPLC. For determination of the total of free and glucuronic acid/sulfate conjugates of tea catechins, plasma or urine samples were mixed with an aliquot of β-glucuronidase and sulfatase in the presence of ascorbate-EDTA solution. Following pre-treatment, the samples were extracted as described above for the free catechins.
(§5) The HPLC system consisted of an ESA Model 465 refrigerated autosampler, an ESA Model 580 two-pump solvent delivery system, an ESA 5500 coulochem electrode array system (CEAS), and a Supelcosil C18 reversed-phase column (150×4.6 mm; particle size, 5 μm; Supelco Inc., Bellefonte, Pa.). The autosampler and column temperatures were maintained at 6° C. and 35° C., respectively. This assay employed a gradient of two mobile phases. Buffer A consisted of 30 mM NaH2PO4 buffer, acetonitrile, and tetrahydrofuran in the volume ratio of 98.13:1.75:0.12 (pH 3.35). Buffer B consisted of 15 mM NaH2PO4 buffer, acetonitrile, and tetrahydrofuran in the volume ratio of 41.5:58.5:12.5 (pH 3.45). The flow rate was maintained at 1 ml/min. The column was eluted with 96% buffer A and 4% buffer B from 0 to 7 min.

[2] = Plasma free catechin pharmacokinetics after oral Polyphenon E, fasting/fed cross-over; type: in vivo, human; conditions: for EGCG AUC / EGCG Cmax: oral Polyphenon E 1200 mg dose level
Experimental: Study Design. […] Breakfast consisted of one or two 4-oz muffins.
Sample Collection and Processing. […] The total volume of each urine sample was measured.
Tea Polyphenol Concentration Measurements.
This assay employed a gradient of two mobile phases. […] The flow rate was maintained at 1 ml/min.
The distribution of pharmacokinetic parameter data was normalized by logarithmic transformation prior to statistical analyses. The primary analyses were to determine whether the pharmacokinetics of tea catechins are different under fasting/fed states. Pharmacokinetic parameters such as AUC, Cmax, Tmax, half-life, CL/F, Vd/F, and total amount excreted over 24 hr between the fasting and fed conditions were compared by standard cross-over statistical analyses. The pkcross routine in Stata 8.0 (StataCorp 2003) was used. […] A p<0.05 was considered statistically significant. In secondary analysis, EGCG pharmacokinetic parameters such as CL/F, Vd/F, dose normalized AUC, and dose normalized Cmax were compared among different dose levels using one-way analysis of variance followed by post-hoc t-tests corrected for multiple comparisons. For the post-hoc t-test, a p<0.0167 was considered statistically significant.

[3] = Total catechin recovered in urine over 24 hours after oral Polyphenon E; type: in vivo, human; conditions: following Polyphenon E administration
Experimental: Blood samples were collected prior to and at 0.5, 1, 2, 4, 6, 8, 10, and 24 hours after Polyphenon E administration. Urine samples were collected prior to and up to 24 hours (divided into two intervals: 0-8 and 8-24 hours post-dose) after dosing.
Sample Collection and Processing. Blood samples were collected into Vacutainer tubes containing sodium heparin. Within 30 minutes of collection, tubes were centrifuged for 10 minutes at 2000 rpm. After centrifugation, plasma was mixed with Vc-EDTA solution (0.4 M NaH2PO4 buffer containing 20% ascorbic acid and 0.1% EDTA, pH 3.6) in the volume ratio of 1:0.02 and stored at −80° C. until sample analysis. Urine specimen container was preadded with 1.38 g NaH2PO4, 1 g ascorbic acid, and 5 mg EDTA to prevent degradation of tea catechins. Urine specimen was kept cold by storing the specimen container in a cooler chest with freezer packs during each collection period. The total volume of each urine sample was measured. […]
The HPLC system consisted of an ESA Model 465 refrigerated autosampler, an ESA Model 580 two-pump solvent delivery system, an ESA 5500 coulochem electrode array system (CEAS), and a Supelcosil C18 reversed-phase column (150×4.6 mm; particle size, 5 μm; Supelco Inc., Bellefonte, Pa.). […] The eluent was monitored by the CEAS with potential settings at −10, 150, 300, and 500 mV. […]

[4] = rats; cited from earlier work
[5] = mice; cited from earlier work
[6] = in vivo
Experimental: as §1, §2, §3, §4, §5

[7] = oral Polyphenon E (400 mg EGCG), Fasting
[8] = oral Polyphenon E (400 mg EGCG), Fed
[9] = oral Polyphenon E (800 mg EGCG), Fasting
[10] = oral Polyphenon E (800 mg EGCG), Fed
[11] = oral Polyphenon E (1200 mg EGCG), Fasting
[12] = oral Polyphenon E (1200 mg EGCG), Fed
[13] = oral Polyphenon E 200 mg (so in the source), Fasting
[14] = oral Polyphenon E 200 mg (so in the source), Fed
[15] = oral Polyphenon E 400 mg, Fasting
[16] = oral Polyphenon E 800 mg, Fasting

- form mostly present in plasma [1]: conjugated forms
- free catechin levels in plasma samples ([2]; after oral Polyphenon E): very low or undetectable
- Maximum plasma free catechin concentrations [2, 7]: 5.6 ± 7.8 ng/mL
- Maximum plasma free catechin concentrations [2, 8]: 1.6 ± 3.9 ng/mL
- Maximum plasma free catechin concentrations [2, 9]: 1.92 ± 3.4 ng/mL
- Maximum plasma free catechin concentrations [2, 10]: 2.8 ± 5.0 ng/mL
- Maximum plasma free catechin concentrations [2, 11]: 16.6 ± 30.0 ng/mL
- Maximum plasma free catechin concentrations [2, 12]: 10.1 ± 15.3 ng/mL
Compound: Oc1cc(O)c2c(c1)O[C@H](c1ccc(O)c(O)c1)[C@H](O)C2 [EC, epicatechin]

- form mostly present in plasma [1]: free form
- Maximum plasma free catechin concentrations [2, 7]: 87.6 ± 62 ng/mL
- Maximum plasma free catechin concentrations [2, 8]: 15.7 ± 8.8 ng/mL
- Maximum plasma free catechin concentrations [2, 9]: 174 ± 141 ng/mL
- Maximum plasma free catechin concentrations [2, 10]: 33.9 ± 11.0 ng/mL
- Maximum plasma free catechin concentrations [2, 11]: 383 ± 176 ng/mL
- Maximum plasma free catechin concentrations [2, 12]: 112.9 ± 88.2 ng/mL
- urinary total catechin levels [3]: very low or undetectable
Compound: O=C(O[C@@H]1Cc2c(O)cc(O)cc2O[C@@H]1c1ccc(O)c(O)c1)c1cc(O)c(O)c(O)c1 [ECG, epicatechin gallate]

- form mostly present in plasma [1]: free form
- Maximum plasma total catechin concentrations [1, 7]: 754.9 ± 399.9^3 ng/ml
- Maximum plasma total catechin concentrations [1, 8]: 174.4 ± 80.6 ng/mL
- Maximum plasma total catechin concentrations [1, 9]: 1622.7 ± 1501.4^3 ng/ml
- Maximum plasma total catechin concentrations [1, 10]: 360.1 ± 136.9 ng/mL
- Maximum plasma total catechin concentrations [1, 11]: 3988.4 ± 2068.2^3 ng/ml
- Maximum plasma total catechin concentrations [1, 12]: 871.9 ± 625.3 ng/mL
- AUC of free EGCG [2, 13]: 685.53 ± 394.33^2 min · μg/ml
- CL/F of free EGCG [2, 13]: 2.37 ± 1.32^2 L/min
- Cmax of free EGCG [2, 13]: 3371.6 ± 1651.2^2 ng/ml
- Tmax of free EGCG [2, 13]: 90.60 ± 28.37^3 min
- t1/2 of free EGCG [2, 13]: 228.4 ± 75.3 min
- AUC of free EGCG [2, 14]: 299.40 ± 285.86^2 min · μg/ml
- CL/F of free EGCG [2, 14]: 7.39 ± 4.86 L/min
- Cmax of free EGCG [2, 14]: 923.6 ± 755.3 ng/mL
- Tmax of free EGCG [2, 14]: 175.10 ± 74.58 min
- t1/2 of free EGCG [2, 14]: 254.9 ± 59.9^4 min
- CL/F of free EGCG [2, 15]: 3.64 ± 1.55^2 L/min
- Tmax of free EGCG [2, 15]: 93.90 ± 58.99^3 min
- t1/2 of free EGCG [2, 15]: 170.5 ± 104.6 min
- CL/F of free EGCG ([2]; oral Polyphenon E 400 mg, Fed): 14.53 ± 7.84 L/min
- Cmax of free EGCG ([2]; oral Polyphenon E 400 mg, Fed): 141.8 ± 89.1 ng/mL
- Tmax of free EGCG ([2]; oral Polyphenon E 400 mg, Fed): 122.90 ± 83.70 min
- t1/2 of free EGCG ([2]; oral Polyphenon E 400 mg, Fed): 145.2 ± 129.1 min
- CL/F of free EGCG [2, 16]: 4.80 ± 2.69^2 L/min
- Tmax of free EGCG [2, 16]: 83.30 ± 31.04^3 min
- t1/2 of free EGCG [2, 16]: 156.5 ± 77.5 min
- AUC of free EGCG ([2]; oral Polyphenon E 800 mg, Fed): 90.89 ± 37.39 µg·min/mL
- CL/F of free EGCG ([2]; oral Polyphenon E 800 mg, Fed): 11.63 ± 9.25 L/min
- Cmax of free EGCG ([2]; oral Polyphenon E 800 mg, Fed): 294.0 ± 113.5 ng/mL
- Tmax of free EGCG ([2]; oral Polyphenon E 800 mg, Fed): 154.90 ± 78.31 min
- t1/2 of free EGCG ([2]; oral Polyphenon E 800 mg, Fed): 220.9 ± 209.3 min
- EGCG AUC ([2]; with food): 299.40 ± 285.86 µg·min/mL
- EGCG Cmax ([2]; with food): 923.6 ± 755.3 ng/mL
- EGCG AUC ([2]; without food): 685.53 ± 394.33 µg·min/mL
- EGCG Cmax ([2]; without food): 3371.6 ± 1651.2 ng/mL
- Maximum plasma free catechin concentrations [2, 7]: 799 ± 573 ng/mL
- Maximum plasma free catechin concentrations [2, 8]: 141.8 ± 89.1 ng/mL
- Maximum plasma free catechin concentrations [2, 9]: 1522.4 ± 1357.8^3 ng/ml
- Maximum plasma free catechin concentrations [2, 10]: 294.0 ± 113.5 ng/mL
- Maximum plasma free catechin concentrations [2, 11]: 3371.6 ± 1651.2^3 ng/ml
- Maximum plasma free catechin concentrations [2, 12]: 923.6 ± 755.3 ng/mL
- urinary total catechin levels [3]: very low or undetectable
Compound: O=C(O[C@@H]1Cc2c(O)cc(O)cc2O[C@@H]1c1cc(O)c(O)c(O)c1)c1cc(O)c(O)c(O)c1 [EGCG, epigallocatechin gallate]
- AUC of free EGCG [2, 15]: 126.96±47.02 min · μg/ml and 126.96 ± 47.02^2 min · μg/ml
- Cmax of free EGCG [2, 15]: 798.7±573.1 ng/ml and 798.7 ± 573.1^2 ng/ml
- AUC of free EGCG ([2]; oral Polyphenon E 400 mg, Fed): 36.70±24.66 min · μg/ml and 36.70 ± 24.66^1 min · μg/ml
- AUC of free EGCG [2, 16]: 254.48±214.21 min · μg/ml and 254.48 ± 214.21^2 min · μg/ml
- Cmax of free EGCG [2, 16]: 1522.4±1357.8 ng/ml and 1522.4 ± 1357.8^2 ng/ml
- oral dose available in the systemic blood [4]: less than 2%
- oral bioavailability [5]: < 13%

Compound: Oc1cc(O)c2c(c1)O[C@H](c1cc(O)c(O)c(O)c1)[C@H](O)C2 [EGC, epigallocatechin]
- form mostly present in plasma [6]: conjugated forms
